Assay results reported in US20040048899A1, “Tartrate salts of thiazollidnedione derivative” (priority 2000, published 2004).
Like-named read-outs stand apart in the source and are kept apart here.

Conditions: 1 month, glass bottle, product of Example 4
Method: The solid state stability of the drug substance was determined by storing approximately 1.0 g of the material in a glass bottle at i) 40° C./75% Relative Humidity (RH), open exposure, for 1 month and b) at 50° C., closed, for 1 month. The material was assayed by HPLC for final content and degradation products in both cases.

[1] = 40° C./75% Relative Humidity, open exposure

Question: For CN(CCOc1ccc(CC2SC(=O)NC2=O)cc1)c1ccccn1.O=C(O)C(O)C(O)C(=O)O (stereo not drawn) [D(−) Tartrate, 5-[4-[2-(N-methyl-N-(2-pyridyl)amino)ethoxy]benzyl]thiazolidine-2,4-dione, D(−) tartrate salt], which “Solid state stability: HPLC assay” value [1] is on record?
Answer: 96 % initial

Question: And the “Solid state stability: degradation observed” value [1]?
Answer: No significant degradation observed

Question: What about the “Solid state stability: HPLC assay” value (50° C., closed) of the same compound?
Answer: 98 % initial

Question: What about the “Solid state stability: degradation observed” value (50° C., closed) of the same compound?
Answer: No significant degradation observed
